Laboratory results taken from paper PMC2810561 (Journal of the American Chemical Society, 2009).

Tested on: T84 human intestinal cells
Type: cell-based

## cholera toxin
  secretory response (short-circuit current) to cholera toxin: a pronounced secretory response was observed
